Reference: patent US20110160250A1, “CRYSTALLINE FORMS OF A FACTOR XA INHIBITOR” (Millennium Pharmaceuticals, Inc., priority 2009, published 2011)
Like-named read-outs stand apart in the source and are kept apart here.

What was measured:
[1] = Pharmacokinetics of Compound I in rat after intravenous and oral administration (plasma and urine LC/MS/MS, noncompartmental analysis); assay type: in vivo, male Sprague-Dawley rats; settings: mean ± SD; for half-life: read-out: T1/2 (terminal half-life) (converted); for Vd: iv
Method: (§1) The following experiments were conducted using samples of Compound I prepared by a method disclosed in U.S. Pat. No. 7,763,608, which is incorporated by reference in its entirety.
Compound I was used in the rat investigation. An intravenous (IV) and oral (PO) dose of Compound I (1.0 and 10 mg/kg, respectively) was prepared. The IV dose was solubilized in 50% PEG300 to yield a final concentration of 1.0 mg/mL with a final pH of 5.13. The PO dose was suspended in 0.5% methylcellulose at a concentration of 2.0 mg/mL with a final pH of 2.70.
(§2) A total of six male Sprague-Dawley rats (n=3/dosing group) from Charles River Laboratories (Hollister, Calif.), three male beagle dogs from Marshall BioResources (North Rose, N.Y.) and three male rhesus monkeys were utilized. All surgical procedures in rat (femoral and jugular vein catheterizations) were performed 8 days prior to utilization in the study and rats were acclimated in-house 5 days prior to utilization. Dogs were acclimated in-house at least seven days prior to utilization and were returned to the colony at the completion of the study. Monkey studies were conducted by an off-site contract laboratory.
(§3) All animals were fasted from the afternoon prior to study initiation to two hours post-dose (approximately 18 hours). Water was provided ad libitum. All animal rooms were on a 12 hour light-dark cycles (6 A.M. to 6 P.M.). On the morning of experimentation, animals were weighed. Rat femoral and jugular (IV only) vein blood lines were exteriorized and attached to access ports. Dogs were weighed and shaved at blood sampling and IV dosing sites (along both cephalic and saphenous veins).
(§4) All animals were dosed based on individual weights with a PO gavage volume of 5.0 mL/kg and an IV bolus dose volume of 1.0 mL/kg. Blood samples were obtained on 3.8% TSC (1:10 dilution) over a 24, 56, and 96 hour period post-dosing for the rat, dog, and monkey, respectively. Blood samples were centrifuged for platelet poor plasma, and resulting plasma was stored at −20° C. until sample analysis. Rat urine samples were collected on 200 μL of 2% boric acid from animals in the IV group at 0 (overnight), 10, and 24 hours post-dose. At collection times, urine volume and water consumption was recorded. Urine samples were stored at −20° C. until sample analysis.
(§5) Plasma and urine samples were analyzed for Compound I concentration using a liquid chromatography tandem mass spectrometry (LC/MS/MS). In brief, plasma and urine samples were processed in a 96-well Captiva™ filter plate (0.2 μm, Varian, Inc., Palo Alto, Calif.). Aliquots of plasma samples were precipitated with acetonitrile containing 500 ng/mL of N-(2-(5-chloropyridin-2-ylcarbaomoyl)-4-methoxyphenyl)-4-(N,N-dimethylcarbamimidoyl)-2-fluorobenzamide, an internal standard. Aliquots of urine samples were diluted with plasma before mixing with acetonitrile containing internal standard. The mixture was vortexed and refrigerated at 4° C. for 30 minutes to allow complete protein precipitation. The mixture was filtered into a 96-well collection plate. The filtrate was injected onto a Sciex API3000 LC/MS/MS equipped with a turbo-ion spray source. Compound I and N-(2-(5-chloropyridin-2-ylcarbaomoyl)-4-methoxyphenyl)-4-(N,N-dimethylcarbamimidoyl)-2-fluorobenzamide were separated on a Thermo Hypersil-Keystone Betasil C18 column (4.6×100 mm, 5 μm; Fisher Scientific, Houston, Tex.). A mobile phase gradient mixture of 90% mobile phase A (0.5% formic acid in water) and 10% mobile phase B (0.5% formic acid in 90% acetonitrile) to 40% mobile phase B (programmed over 2.8 minutes). The peak areas of the m/z 411→250 product ion (Compound I) were measured against those of the m/z 470→342 product ion (N-(2-(5-chloropyridin-2-ylcarbaomoyl)-4-methoxyphenyl)-4-(N,N-dimethylcarbamimidoyl)-2-fluorobenzamide) in positive ion mode. The analytical range was 0.500 to 10,000 ng/mL.
(§6) Sample Compound I concentrations below the lower limit of quantitation (LLQ) were reported as <0.500 ng/mL. […]

[2] = Pharmacokinetics of Compound I in dog after intravenous and oral administration (plasma LC/MS/MS, noncompartmental analysis); assay type: in vivo, male beagle dogs; settings: mean ± SD; for Vd: iv
Method: as §1
(§7) For the dog and monkey study, Compound I was also used. An IV and PO dose of Compound I (1.0 and 5.0 mg/kg, respectively) was prepared. The IV dose was formulated similarly to that used in the rat study (50% PEG300 in water). The PO dose was suspended in 0.5% methylcellulose at a concentration of 1.0 mg/mL with a final pH of approximately 3.50.
as §2, §3, §4, §5, §6

[3] = Pharmacokinetics of Compound I in monkey after intravenous and oral administration (plasma LC/MS/MS, noncompartmental analysis); assay type: in vivo, male rhesus monkeys; settings: mean ± SD; for Vd: iv
Method: as §1, §7, §2, §3, §4, §5, §6

[4] = male, Sprague-Dawley, plasma, intravenous, 1 mg/kg
[5] = male, Sprague-Dawley, plasma, oral, 10 mg/kg
[6] = male, beagle, plasma, intravenous, 1 mg/kg
[7] = male, beagle, plasma, oral, 5 mg/kg
[8] = male, rhesus, rhesus monkey, plasma, intravenous, 1 mg/kg
[9] = male, rhesus, rhesus monkey, plasma, oral, 5 mg/kg

In the case of `O=C(NCc1cn(-c2ccc(-n3ccccc3=O)cc2)cn1)c1ccc(Cl)s1` [Compound I, 5-chloro-N-((1-(4-(2-oxopyridin-1(2H)-yl)phenyl)-1H-imidazol-4-yl)methyl)thiophene-2-carboxamide], the “Dose excreted unchanged in urine” value ([1]; intravenous, 1 mg/kg) is reported as 0.248 ± 0.019%, the AUC [1, 4] is reported as 5380 ± 1190 ng·h/mL and the AUC(0-inf) [1, 4] is reported as 5400 ± 1160 ng·h/mL. The clearance ([1]; male, Sprague-Dawley, plasma, intravenous, 1 mg/kg, read-out: CL (systemic clearance)) was 3.19 ± 0.734 mL/min/kg, the half-life [1, 4] was 2.86 ± 1.4 h and the Vd ([1]; male, Sprague-Dawley, plasma, 1 mg/kg, intravenous, 1 mg/kg, read-out: Vss (volume of distribution at steady-state)) was 0.368 ± 0.026 L/kg. The Vd ([1]; male, Sprague-Dawley, plasma, 1 mg/kg, intravenous, 1 mg/kg, read-out: Vz (volume of distribution)) was 0.757 ± 0.328 L/kg, the AUC [1, 5] was 68500 ± 12500 ng·h/mL and the AUC(0-inf) [1, 5] was 68600 ± 12500 ng·h/mL. For the same molecule, the Cmax [1, 5] was 28900 ± 2080 ng/mL, the Tmax [1, 5] was 0.25 h and the half-life [1, 5] was 2.72 ± 0.29 h. For the same molecule, the “AUC/D (dose-normalized AUC(0-inf))” value ([1]; oral, 10 mg/kg) was 6859 ± 1249 kg·h/mL, the AUC [2, 6] was 1620 ± 360 ng·h/mL and the AUC(0-inf) [2, 6] was 1620 ± 363 ng·h/mL. For the same molecule, the clearance ([2]; male, beagle, plasma, intravenous, 1 mg/kg, read-out: CL (systemic clearance)) was 10.7 ± 2.69 mL/min/kg, the Vd ([2]; male, beagle, plasma, 1 mg/kg, intravenous, 1 mg/kg, read-out: Vss (volume of distribution at steady-state)) was 0.843 ± 0.288 L/kg and the Vd ([2]; male, beagle, plasma, 1 mg/kg, intravenous, 1 mg/kg, read-out: Vz (volume of distribution)) was 2.73 ± 2.45 L/kg. The AUC [2, 7] was 5460 ± 1470 ng·h/mL, the AUC(0-inf) [2, 7] was 5480 ± 1480 ng·h/mL and the Cmax [2, 7] was 2720 ± 474 ng/mL. The Tmax [2, 7] was 0.583 ± 0.382 h, the “AUC/D (dose-normalized AUC(0-inf))” value ([2]; oral, 5 mg/kg) was 1095 ± 295 kg·h/mL and the AUC [3, 8] was 12600 ± 6000 ng·h/mL. It also gave an AUC(0-inf) [3, 8] of 12600 ± 6000 ng·h/mL, a clearance ([3]; male, rhesus, rhesus monkey, plasma, intravenous, 1 mg/kg, read-out: CL (systemic clearance)) of 1.66 ± 1.06 mL/min/kg and a Vd ([3]; male, rhesus, rhesus monkey, plasma, 1 mg/kg, intravenous, 1 mg/kg, read-out: Vss (volume of distribution at steady-state)) of 0.353 ± 0.059 L/kg. It also gave a Vd ([3]; male, rhesus, rhesus monkey, plasma, 1 mg/kg, intravenous, 1 mg/kg, read-out: Vz (volume of distribution)) of 2.31 ± 1.71 L/kg, an AUC [3, 9] of 42100 ± 17200 ng·h/mL and an AUC(0-inf) [3, 9] of 42200 ± 17200 ng·h/mL. The Cmax [3, 9] was 6040 ± 1880 ng/mL, the Tmax [3, 9] was 2 h and the “AUC/D (dose-normalized AUC(0-inf))” value ([3]; oral, 5 mg/kg) was 8430 ± 3449 kg·h/mL.
